Laboratory results from patent publication US20240165227A1, “ANTICANCER THERAPIES USING ANTI-CCR8 ANTIBODY, CHEMO AND IMMUNOTHERAPY COMBINATIONS” (Gilead Sciences, Inc., priority 2022, published 2024).

Columns and labels:
LLC (lung cancer) [1] = experiment: LLC syngeneic mouse lung model, first study, tumor growth; type: in vivo; details: single dose low dose docetaxel 5 mg/kg and/or anti-CCR8 antibody Q3D 1 mg/kg, FIG. 6
Experimental: (§1) The ability of an anti-CCR8 antibody to augment tumor-specific effector T cell responses when paired with low-dose chemotherapy with or without an anti-PD-1 mAb was tested in vivo in different mouse syngeneic models, including 4T1 (breast cancer), Pan02 (pancreatic cancer), B16F10 (melanoma), LLC (lung cancer). 4T1 and Pan02 models are commonly understood to represent solid tumor models with strong immunosuppressive components. B16F10 and LLC are commonly viewed as cold tumor models.
(§2) The anti-CCR8 antibody used for the studies described herein is a mouse IgG2a isotype, and as described, e.g., by Campbell, J. R., et al. (2021). “Fc-Optimized Anti-CCR8 Antibody Depletes Regulatory T Cells in Human Tumor Models.” Cancer Res 81(11): 2983-2994. Isotype Control is a mouse IgG2a (BioXcell). Anti-PD-1 antibody is a mouse IgG1 antibody with D265A mutation.
(§3) A first study using the LLC model tested the relative antitumor activities of anti-CCR8 antibody and docetaxel administrations as single agents and in combination. Following inoculation, mice were randomized and grouped (n=8 animals per group) when tumors reached 80-120 mm^3 and administered a single dose of low dose docetaxel at 5 mg/kg (approximately 50% of most efficacious dose) and/or anti-CCR8 antibody Q3D at 1 mg/kg. A control group received an isotype control antibody.

LLC (lung cancer) [2] = experiment: LLC syngeneic mouse lung model, second study (single, dual, triple combinations), tumor growth; type: in vivo; details: docetaxel 5 mg/kg, anti-CCR8 antibody Q3D 1 mg/kg, anti-PD-1 antibody Q3D 10 mg/kg, FIG. 7, FIG. 8
Experimental: as §1, §2
A second study using the LLC model tested the relative antitumor activities of anti-CCR8 antibody, anti-PD-1 antibody, and low dose docetaxel as single agents, dual combinations, and a triple combination. Following inoculation, mice were randomized and grouped (n=10 animals per group) when tumors reached 80-120 mm^3 and administered a single dose of docetaxel at 5 mg/kg, and/or anti-CCR8 antibody Q3D at 1 mg/kg, and/or anti-PD-1 antibody Q3D at 10 mg/kg. A control group received an isotype control antibody. […]

[3] = test system: tumor infiltrating lymphocytes from B16F10 tumors; experiment: B16F10 model, flow cytometry of tumor infiltrating lymphocytes (Treg and CD8 frequency); type: in vivo, mouse; details: B16F10 tumors collected at Day 5 post-dose, FIG. 4B
From the text: FIG. 4A and FIG. 4B show bar charts illustrating tumor infiltrating lymphocytes from a syngeneic mouse melanoma model (B16F10). Mice were each administered with a single dose of a control antibody, gemcitabine (“low dose SOC chemo”) and/or an anti-CCR8 antibody, and frequencies of regulatory T-cells (Tregs; […]) or effector T-cells ([…]) were quantified. T test results are shown, wherein **** is p<0.0001, *** p<0.001, ** is p<0.01 and * is p<0.1.
A first study using the B16F10 model tested the relative antitumor activities of anti-CCR8 antibody and gemcitabine administrations as single agents and in combination. Following inoculation, mice were randomized and grouped (n=10 animals per group) when tumors reached 80-120 mm^3 and administered a single dose of low dose gemcitabine at 15 mg/kg (approximately 50% of most efficacious dose) and/or anti-CCR8 antibody Q3D at 1 mg/kg. A control group received an isotype control antibody. […] Tumors were collected at Day 5 post-dose. […] Briefly, tumors were dissociated and prepared for flow cytometry staining. Cells were stained as follows: L/D, CD45, CD3, CD4, CD8, CD25, FoxP3. Samples were acquired on flow cytometer and data generated was used to determine Treg frequency (L/D negative, CD45 positive, CD3 positive, CD4 positive, CD25 positive, FoxP3 positive) and CD8 frequency (L/D negative, CD45 positive, CD3 positive, CD8 positive).

B16F10 (melanoma) = experiment: B16F10 syngeneic mouse melanoma model, first study, tumor growth; type: in vivo; details: single dose low dose gemcitabine 15 mg/kg and/or anti-CCR8 antibody Q3D 1 mg/kg, FIG. 3
Experimental: as §1, §2
as §3, with “the B16F10” for “the LLC”, “and gemcitabine” for “and docetaxel”, “grouped (n=10” for “grouped (n=8”, “dose gemcitabine” for “dose docetaxel”, “at 15” for “at 5”, “antibody. […] Tumors were collected at Day 5 post-dose. […]” for “antibody.”

SMILES | tumor growth inhibition (LLC (lung cancer) [1]) | tumor growth inhibition (LLC (lung cancer) [2]) | CD8+ T-cell infiltration in the tumors (CD8 frequency) [3] | tumor growth inhibition (B16F10 (melanoma))
CC(=O)O[C@@]12CO[C@@H]1C[C@H](O)[C@@]1(C)C(=O)[C@H](O)C3=C(C)[C@@H](OC(=O)[C@H](O)[C@@H](NC(=O)OC(C)(C)C)c4ccccc4)C[C@@](O)([C@@H](OC(=O)c4ccccc4)[C@H]21)C3(C)C [docetaxel] | did not result in substantial tumor growth inhibition | Partial tumor growth inhibition | – | –
Nc1ccn([C@@H]2O[C@H](CO)[C@@H](O)C2(F)F)c(=O)n1 [gemcitabine] | – | – | significant CD8+ T-cell infiltration | did not result in substantial tumor growth inhibition
